From US5593964A, “Method of treating septic shock by preventing actin polymerization” (The George Washington University Medical Center, priority 1994, dated 1997)

Key:
[1] = system: IL-1α; assay: IL-1α serum levels after lethal endotoxin dose; format: in vivo, Swiss-Webster mice
From the text: (§1) Using the same methods and materials as in examples 1-3, the effect which Tβ4 has on blood levels of IL-1α, TNF-α, PAG, Txβ2 and 6-keto-PGF1 α, which are pathological mediators of endotoxin induced lethality, was studied.

[2] = system: 6-keto-PGF1α; assay: 6-keto-PGF1α plasma levels after lethal endotoxin dose; format: in vivo, Swiss-Webster mice; details: after a lethal dose of endotoxin
From the text: as §1

[3] = system: Txβ2; assay: Txβ2 plasma levels after lethal endotoxin dose; format: in vivo, Swiss-Webster mice
From the text: as §1

[4] = system: lethal endotoxin shock; assay: Survival of Swiss Webster mice following lethal endotoxin dose and Tβ4; format: in vivo
Method: Swiss-Webster mice 4-6 weeks of age (20-25g) were housed 6 per cage. The mice were divided into 2 groups: endotoxic mice (endotoxin 60 mg/kg i.p. in acute treatment) and endotoxic mice treated with Tβ4, 5 minutes and 2, 4, 6, 8, 10, 12, 14, 16, 18, 20, 22, 24 hours post administration of the endotoxin. Survival was recorded 2 times a day for 7 days.
Swiss-Webster mice 4-6 weeks of age (20-25g) were divided to the following 4 groups.
1. Mice treated with a lethal dose of endotoxin (60 mg/kg).
2. Mice treated with 60 mg/kg endotoxin followed by an injection of 100 μg Tβ4 (5 minutes post administration of endotoxin).
3. Mice treated with 60 mg/kg endotoxin followed by 2 injections of 100 μg/Tβ4 (immediately following and 2 hours post administration of endotoxin).
4. […]

[5] = system: TNF-α; assay: TNF-α serum levels after lethal endotoxin dose; format: in vivo, Swiss-Webster mice
From the text: as §1

[6] = system: PAF; assay: PAF blood levels (plasma, serum) after lethal endotoxin dose; format: in vivo, Swiss-Webster mice; details: after a lethal dose of endotoxin
From the text: as §1

[7] = after a lethal dose of endotoxin
[8] = endotoxin 60 mg/kg + Tβ4 100 μg administered simultaneously, 1 hr
[9] = endotoxin 60 mg/kg + Tβ4 100 μg administered simultaneously, 3 hr

**Q.** Which IL-1α (serum levels) [1, 7] does the source give for Thymosin β4 [Tβ4] here?
**A.** Its IL-1α (serum levels) is “decreased”.

**Q.** And the “IL-1α (serum levels)” value [1, 8]?
**A.** The value was 147,5 ± 15,1 pg/ml.

**Q.** What about the “IL-1α (serum levels)” value [1, 9] of the same substance?
**A.** The value was 207,5 ± 19,3 pg/ml.

**Q.** What about the “6-keto-PGF1 α plasma levels” value [2] of the same substance?
**A.** The value was “decreased”.

**Q.** What about the Txβ2 (plasma levels) [3, 7] of the same substance?
**A.** The Txβ2 (plasma levels) was “decreased”.

**Q.** What about the “Txβ2 (plasma levels)” value ([3]; endotoxin 60 mg/kg + Tβ4 100 μg administered simultaneously, 0.5 hr) of the same substance?
**A.** Its value is 209 ± 9,5 pg/ml.

**Q.** What about the “Txβ2 (plasma levels)” value [3, 8] of the same substance?
**A.** The value was 607 ± 53 pg/mL.

**Q.** And the “Txβ2 (plasma levels)” value ([3]; endotoxin 60 mg/kg + Tβ4 100 μg administered simultaneously, 2 hr)?
**A.** The value was 196 ± 18 pg/mL.

**Q.** And the “Txβ2 (plasma levels)” value [3, 9]?
**A.** Its value is 112 ± 9 pg/mL.

**Q.** What about the “activity on endotoxin lethality” value ([4]; 10 μg Tβ4) of the same substance?
**A.** Its value is “sometimes shown positive activity”.

**Q.** And the “protection against lethal endotoxin shock” value ([4]; Example 1, endotoxin 60 mg/kg i.p.)?
**A.** Its value is “protected against lethal endotoxin shock”.

**Q.** And the survival rate ([4]; Example 1, endotoxin 60 mg/kg i.p., Tβ4 5 minutes and 2 to 24 hours post endotoxin, survival recorded for 7 days)?
**A.** The survival rate was ≤ 100%.

**Q.** And the survival rate ([4]; Example 2, endotoxin 60 mg/kg, Tβ4 administered 3 times post endotoxin)?
**A.** The survival rate was 100%.

**Q.** And the “Survival (No. mice alive)” value ([4]; Table I, endotoxin 60 mg/kg + Tβ4 100 μg 1x (5 min post endotoxin), 24 hrs, 7 mice at 0 hrs)?
**A.** Its value is 4.

**Q.** What about the “Survival (No. mice alive)” value ([4]; Table I, endotoxin 60 mg/kg + Tβ4 100 μg 2x (immediately and 2 hours post endotoxin), 24 hrs, 7 mice at 0 hrs) of the same substance?
**A.** Its value is 4.

**Q.** And the “Survival (No. mice alive)” value ([4]; Table I, endotoxin 60 mg/kg + Tβ4 100 μg 3x (immediately, 2 and 4 hours post endotoxin), 24 hrs, 7 mice at 0 hrs)?
**A.** Its value is 7.

**Q.** And the “Survival (No. mice alive)” value ([4]; Table II, Tβ4 10 μg 3x immediately following, 2 and 4 hrs after endotoxin, 48 hrs, 8 mice at 0 hrs)?
**A.** Its value is 6.

**Q.** And the “Survival (No. mice alive)” value ([4]; Table II, Tβ4 10 μg 3x immediately following, 2 and 4 hrs after endotoxin, 72 hrs, 8 mice at 0 hrs)?
**A.** Its value is 6.

**Q.** And the “Survival (No. mice alive)” value ([4]; Table II, Tβ4 10 μg 3x immediately following, 2 and 4 hrs after endotoxin, 96 hrs, 8 mice at 0 hrs)?
**A.** Its value is 6.

**Q.** What about the “Survival (No. mice alive)” value ([4]; Table II, Tβ4 10 μg 3x immediately following, 2 and 4 hrs after endotoxin, 120 hrs, 8 mice at 0 hrs) of the same substance?
**A.** Its value is 6.

**Q.** And the “Survival (No. mice alive)” value ([4]; Table II, Tβ4 100 μg 3x at 2, 4 and 6 hrs after endotoxin, 48 hrs, 8 mice at 0 hrs)?
**A.** Its value is 4.

**Q.** And the “Survival (No. mice alive)” value ([4]; Table II, Tβ4 100 μg 3x at 2, 4 and 6 hrs after endotoxin, 72 hrs, 8 mice at 0 hrs)?
**A.** The value was 4.

**Q.** What about the “Survival (No. mice alive)” value ([4]; Table II, Tβ4 100 μg 3x at 2, 4 and 6 hrs after endotoxin, 96 hrs, 8 mice at 0 hrs) of the same substance?
**A.** The value was 4.

**Q.** And the “Survival (No. mice alive)” value ([4]; Table II, Tβ4 100 μg 3x at 2, 4 and 6 hrs after endotoxin, 120 hrs, 8 mice at 0 hrs)?
**A.** The value was 4.

**Q.** And the “Survival (No. mice alive)” value ([4]; Table II, Tβ4 100 μg 3x immediately following, 2 and 4 hrs after endotoxin, 48 hrs, 8 mice at 0 hrs)?
**A.** Its value is 8.

**Q.** And the “Survival (No. mice alive)” value ([4]; Table II, Tβ4 100 μg 3x immediately following, 2 and 4 hrs after endotoxin, 72 hrs, 8 mice at 0 hrs)?
**A.** Its value is 8.

**Q.** What about the “Survival (No. mice alive)” value ([4]; Table II, Tβ4 100 μg 3x immediately following, 2 and 4 hrs after endotoxin, 96 hrs, 8 mice at 0 hrs) of the same substance?
**A.** Its value is 8.

**Q.** What about the “Survival (No. mice alive)” value ([4]; Table II, Tβ4 100 μg 3x immediately following, 2 and 4 hrs after endotoxin, 120 hrs, 8 mice at 0 hrs) of the same substance?
**A.** Its value is 8.

**Q.** What about the “Survival (No. mice alive)” value ([4]; Table II, endotoxin 60 mg/kg + Tβ4 10 μg 3x immediately following, 2 and 4 hrs after endotoxin, 24 hrs, 8 mice at 0 hrs) of the same substance?
**A.** Its value is 8.

**Q.** And the “Survival (No. mice alive)” value ([4]; Table II, endotoxin 60 mg/kg + Tβ4 100 μg 3x at 2, 4 and 6 hrs after endotoxin, 24 hrs, 8 mice at 0 hrs)?
**A.** Its value is 7.

**Q.** And the “Survival (No. mice alive)” value ([4]; Table II, endotoxin 60 mg/kg + Tβ4 100 μg 3x immediately following, 2 and 4 hrs after endotoxin, 24 hrs, 8 mice at 0 hrs)?
**A.** Its value is 8.

**Q.** What about the “Survival (No. mice alive)” value ([4]; Table III, Tβ4 10 μg 3x i.p., 48 hrs, 10 mice at 0 hrs) of the same substance?
**A.** The value was 3.

**Q.** And the “Survival (No. mice alive)” value ([4]; Table III, Tβ4 10 μg 3x i.p., 72 hrs, 10 mice at 0 hrs)?
**A.** Its value is 3.

**Q.** And the “Survival (No. mice alive)” value ([4]; Table III, Tβ4 10 μg 3x i.p., 96 hrs, 10 mice at 0 hrs)?
**A.** Its value is 3.

**Q.** And the “Survival (No. mice alive)” value ([4]; Table III, Tβ4 10 μg 3x i.p., 5 days, 10 mice at 0 hrs)?
**A.** The value was 3.

**Q.** What about the “Survival (No. mice alive)” value ([4]; Table III, Tβ4 10 μg 3x i.p., 6 days, 10 mice at 0 hrs) of the same substance?
**A.** Its value is 3.

**Q.** And the “Survival (No. mice alive)” value ([4]; Table III, Tβ4 20 μg 3x i.p., 48 hrs, 10 mice at 0 hrs)?
**A.** Its value is 4.

**Q.** What about the “Survival (No. mice alive)” value ([4]; Table III, Tβ4 20 μg 3x i.p., 72 hrs, 10 mice at 0 hrs) of the same substance?
**A.** The value was 4.

**Q.** What about the “Survival (No. mice alive)” value ([4]; Table III, Tβ4 20 μg 3x i.p., 96 hrs, 10 mice at 0 hrs) of the same substance?
**A.** The value was 3.

**Q.** And the “Survival (No. mice alive)” value ([4]; Table III, Tβ4 20 μg 3x i.p., 5 days, 10 mice at 0 hrs)?
**A.** The value was 3.

**Q.** What about the “Survival (No. mice alive)” value ([4]; Table III, Tβ4 20 μg 3x i.p., 6 days, 10 mice at 0 hrs) of the same substance?
**A.** The value was 3.

**Q.** What about the “Survival (No. mice alive)” value ([4]; Table III, Tβ4 50 μg 3x i.p., 48 hrs, 10 mice at 0 hrs) of the same substance?
**A.** Its value is 7.

**Q.** And the “Survival (No. mice alive)” value ([4]; Table III, Tβ4 50 μg 3x i.p., 72 hrs, 10 mice at 0 hrs)?
**A.** Its value is 7.

**Q.** And the “Survival (No. mice alive)” value ([4]; Table III, Tβ4 50 μg 3x i.p., 96 hrs, 10 mice at 0 hrs)?
**A.** The value was 7.

**Q.** What about the “Survival (No. mice alive)” value ([4]; Table III, Tβ4 50 μg 3x i.p., 5 days, 10 mice at 0 hrs) of the same substance?
**A.** Its value is 7.

**Q.** And the “Survival (No. mice alive)” value ([4]; Table III, Tβ4 50 μg 3x i.p., 6 days, 10 mice at 0 hrs)?
**A.** The value was 7.

**Q.** What about the “Survival (No. mice alive)” value ([4]; Table III, endotoxin 60 mg/kg + Tβ4 10 μg 3x i.p. immediately following, 2 and 4 hrs after endotoxin, 24 hrs, 10 mice at 0 hrs) of the same substance?
**A.** The value was 3.

**Q.** And the “Survival (No. mice alive)” value ([4]; Table III, endotoxin 60 mg/kg + Tβ4 20 μg 3x i.p. immediately following, 2 and 4 hrs after endotoxin, 24 hrs, 10 mice at 0 hrs)?
**A.** Its value is 5.

**Q.** And the “Survival (No. mice alive)” value ([4]; Table III, endotoxin 60 mg/kg + Tβ4 50 μg 3x i.p. immediately following, 2 and 4 hrs after endotoxin, 24 hrs, 10 mice at 0 hrs)?
**A.** Its value is 9.

**Q.** And the “survival of mice treated with endotoxin” value ([4]; Tβ4 20 μg administered three times)?
**A.** The value was “partially increased the survival”.

**Q.** And the “survival of mice treated with endotoxin” value ([4]; Tβ4 50 μg administered three times)?
**A.** The value was “partially increased the survival”.

**Q.** And the “effect on endotoxin toxicity” value ([4]; Tβ4 given immediately following, 2 and 4 hours after endotoxin treatment)?
**A.** The value was “protective effect”.

**Q.** What about the TNF-α (serum levels) [5, 7] of the same substance?
**A.** The TNF-α (serum levels) was “decreased”.

**Q.** What about the “TNF-α (serum levels)” value ([5]; endotoxin 60 mg/kg + Tβ4 100 μg administered immediately after endotoxin, 1 hr) of the same substance?
**A.** The value was 807 pg/mL.

**Q.** What about the “TNF-α (serum levels)” value ([5]; endotoxin 60 mg/kg + Tβ4 100 μg administered immediately after endotoxin, 3 hr) of the same substance?
**A.** Its value is 591 pg/mL.

**Q.** What about the “TNF-α (serum levels)” value ([5]; endotoxin 60 mg/kg + Tβ4 100 μg administered immediately after endotoxin, 5 hr) of the same substance?
**A.** The value was 496 pg/mL.

**Q.** And the PAF plasma levels [6]?
**A.** The PAF plasma levels was “decreased”.
